Reference: PubChem BioAssay (NCI)
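These data come from cells grown in 96-well plates and exposed to compound for 48 hours at five concentrations. GI50 marks 50% less growth. At the TGI there is no net growth.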

How the values were obtained:
Assay in all cases: NCI anticancer screen, dose series, 48 h
[1] = system: DU-145 prostate
[2] = system: UO-31 renal
[3] = system: TK-10 renal
[4] = system: OVCAR-5 ovarian
[5] = system: MDA-MB-435
[6] = system: U251 CNS
[7] = system: K-562 leukemia
[8] = system: A498 renal
[9] = system: LOX IMVI melanoma
[10] = system: OVCAR-4 ovarian
[11] = system: KM12 colon
[12] = system: RXF 393 renal
[13] = system: SNB-19 CNS
[14] = system: SF-539 CNS
[15] = system: COLO 205 colon
[16] = system: SF-295 CNS
[17] = system: A549 NSCLC
[18] = system: NCI-H460 lung
[19] = system: HOP-92 NSCLC
[20] = system: HS 578T breast
[21] = system: OVCAR-8 ovarian
[22] = system: MOLT-4 leukemia
[23] = system: SK-MEL-2 melanoma
[24] = system: HT29 colon
[25] = system: M14 melanoma
[26] = system: SK-MEL-5 melanoma
[27] = system: NCI-H226 lung
[28] = system: NCI/ADR-RES ovarian
[29] = system: NCI-H23 lung
[30] = system: UACC-62 melanoma
[31] = system: NCI-H522 lung
[32] = system: SF-268 CNS
[33] = system: EKVX NSCLC
[34] = system: CCRF-CEM leukemia
[35] = system: MDA-MB-231 breast
[36] = system: UACC-257 melanoma
[37] = system: BT-549 breast
[38] = system: MALME-3M melanoma
[39] = system: ACHN renal
[40] = system: RPMI-8226 leukemia
[41] = system: HOP-62 NSCLC
[42] = system: HCT-116 colon
[43] = system: HCT-15 colon
[44] = system: SK-MEL-28 melanoma
[45] = system: SW-620 colon
[46] = system: SK-OV-3 ovarian
[47] = system: IGROV1 ovarian
[48] = system: PC-3 prostate
[49] = system: 786-0 renal
[50] = system: CAKI-1 renal
[51] = system: T-47D breast
[52] = system: SN12C renal
[53] = system: SNB-75 CNS
[54] = system: MCF7 breast
[55] = system: SR leukemia
[56] = system: HCC-2998 colon
[57] = system: OVCAR-3 ovarian
[58] = system: HL-60(TB) leukemia

Nc1nc(-c2cccc([N+](=O)[O-])c2)c(N=Nc2ccc([N+](=O)[O-])cc2Cl)s1
GI50 [1]: 0.383 µM
TGI [1]: > 49.9 µM
GI50 [2]: 0.236 µM
TGI [2]: 1.38 µM
GI50 [3]: 0.573 µM
TGI [3]: 8.87 µM
GI50 [4]: 0.535 µM
TGI [4]: 36.4 µM
GI50 [5]: 0.291 µM
TGI [5]: 3.65 µM
GI50 [6]: 0.213 µM
TGI [6]: 1.32 µM
GI50 [7]: 0.151 µM
TGI [7]: 4.99 µM
GI50 [8]: 0.27 µM
TGI [8]: 0.737 µM
GI50 [9]: 0.317 µM
TGI [9]: 4.61 µM
GI50 [10]: 0.274 µM
TGI [10]: > 67.4 µM
GI50 [11]: 0.272 µM
TGI [11]: 3.73 µM
GI50 [12]: 0.251 µM
TGI [12]: 0.704 µM
GI50 [13]: 0.311 µM
TGI [13]: 20.8 µM
GI50 [14]: 0.344 µM
TGI [14]: 10.4 µM
GI50 [15]: 0.342 µM
TGI [15]: 1.29 µM
GI50 [16]: 0.261 µM
TGI [16]: 1.11 µM
GI50 [17]: 0.354 µM
TGI [17]: > 34.9 µM
GI50 [18]: 0.243 µM
TGI [18]: 1.26 µM
GI50 [19]: 0.0486 µM
TGI [19]: 0.418 µM
GI50 [20]: 0.239 µM
TGI [20]: 1.21 µM
GI50 [21]: 0.308 µM
TGI [21]: 4.46 µM
GI50 [22]: 0.266 µM
TGI [22]: 2.58 µM
GI50 [23]: 0.086 µM
TGI [23]: 0.401 µM
GI50 [24]: 0.342 µM
TGI [24]: 4.38 µM
GI50 [25]: 0.377 µM
TGI [25]: 6.75 µM
GI50 [26]: 0.0877 µM
TGI [26]: 0.286 µM
GI50 [27]: 0.196 µM
TGI [27]: 0.816 µM
GI50 [28]: 0.254 µM
TGI [28]: 2.05 µM
GI50 [29]: 0.168 µM
TGI [29]: 0.786 µM
GI50 [30]: 0.144 µM
TGI [30]: 1.62 µM
GI50 [31]: 0.119 µM
TGI [31]: 2.49 µM
GI50 [32]: 0.31 µM
TGI [32]: > 41.4 µM
GI50 [33]: 0.26 µM
TGI [33]: 4.2 µM
GI50 [34]: 0.31 µM
TGI [34]: 9.12 µM
GI50 [35]: 0.289 µM
TGI [35]: 1.78 µM
GI50 [36]: 0.133 µM
TGI [36]: 1.37 µM
GI50 [37]: 0.206 µM
TGI [37]: 0.842 µM
GI50 [38]: 0.172 µM
TGI [38]: 0.739 µM
GI50 [39]: 0.287 µM
TGI [39]: 11.3 µM
GI50 [40]: 0.0996 µM
GI50 [41]: 0.312 µM
TGI [41]: 1.7 µM
GI50 [42]: 0.231 µM
TGI [42]: 1.23 µM
GI50 [43]: 0.193 µM
TGI [43]: 2 µM
GI50 [44]: 0.336 µM
TGI [44]: 8.14 µM
GI50 [45]: 0.325 µM
TGI [45]: 5.46 µM
GI50 [46]: 0.16 µM
TGI [46]: 1 µM
GI50 [47]: 0.446 µM
TGI [47]: 18.5 µM
GI50 [48]: 0.244 µM
TGI [48]: 7.39 µM
GI50 [49]: 0.351 µM
TGI [49]: 7.21 µM
GI50 [50]: 0.204 µM
TGI [50]: 1.7 µM
GI50 [51]: 0.0671 µM
TGI [51]: 0.771 µM
GI50 [52]: 0.261 µM
TGI [52]: 4.57 µM
GI50 [53]: 0.171 µM
TGI [53]: 2.28 µM
GI50 [54]: 0.192 µM
TGI [54]: 1.36 µM
GI50 [55]: 0.293 µM
TGI [55]: 2.94 µM
GI50 [56]: 0.309 µM
TGI [56]: 7.42 µM
GI50 [57]: 0.245 µM
TGI [57]: 12.9 µM
GI50 [58]: 0.254 µM
TGI [58]: 1.13 µM
